Reference: patent US20220395553A1, “CXCR4 ANTAGONIST PEPTIDES” (COHBAR, INC., priority 2019, published 2022)
Square brackets hold non-standard residues; d marks the D form. Peptide text beside a SMILES is read from it.

What was measured:
[1] = tested on: CXCR4/CXCL12 induced p-MEK; test: CXCR4/CXCL12 induced p-MEK in Jurkat cells (ELISA); format: cell-based, human; conditions: 5 nM CXCL12, 5 min
Procedure: The assay was performed following a protocol similar to that described by Peng, et al., Mol Cancer Ther., 14 480-90 (2015), incorporated herein by reference. […] Jurkat cells were resuspended in standard growth media (RPMI+GlutaMax media; Gibco/Thermo Fisher Scientific; Gaithersburg, Md.) containing 10% FBS and 1% penicillin/streptomycin. Assays were performed using fresh or conditioned media (media cultured overnight in presence of Jurkat cells) to resuspend cells at density of 2×10^6 cells/ml and […] of cell suspension was immediately placed in 1.7 ml microfuge tubes. […] Following the 5 min incubation, cells were centrifuged at 1000×g for 4 min at 4° C. The supernatant was removed and the cells were rinsed with 1 ml of HBSS containing calcium and magnesium. The HBSS was removed and the cells were immediately lysed in 150 l of lysis buffer included with Phospho-MEK1 (Ser217/221) Sandwich ELISA kit (Cell Signaling Technology; Danvers, Mass.); lysis buffer was supplemented with 1 m M PMSF (Millipore-Sigma; Saint Louis, Mo.) and Halt protease/phosphatase inhibitor cocktail (Thermo-Fisher; Waltham, Mass.) prior to use. The samples were then placed on ice for 10 min and vortexed periodically. Following the lysis step, the samples were centrifuged at 12,500 rpm for 10 min at 4° C. p-MEK expression in each of the samples was then measure using Phospho-MEK1 (Ser217/221) Sandwich ELISA kit according to manufacturer's instructions. Absorbance was measured using a Cytation 3 plate reader at […] (BioTek; Winooski, Vt.).

human CXCR4 [2] = biological target: T1, human CXCR4 (Homo sapiens, UniProt P61073); test: IC50 for inhibition of CXCR4 activation, β-Arrestin recruitment (Example 22); format: cell-based; design: host or cells: C2C12 (mouse myoblast) CXCR4 β-Arrestin PathHunter cell line
T1 sequence (P61073 whole entry): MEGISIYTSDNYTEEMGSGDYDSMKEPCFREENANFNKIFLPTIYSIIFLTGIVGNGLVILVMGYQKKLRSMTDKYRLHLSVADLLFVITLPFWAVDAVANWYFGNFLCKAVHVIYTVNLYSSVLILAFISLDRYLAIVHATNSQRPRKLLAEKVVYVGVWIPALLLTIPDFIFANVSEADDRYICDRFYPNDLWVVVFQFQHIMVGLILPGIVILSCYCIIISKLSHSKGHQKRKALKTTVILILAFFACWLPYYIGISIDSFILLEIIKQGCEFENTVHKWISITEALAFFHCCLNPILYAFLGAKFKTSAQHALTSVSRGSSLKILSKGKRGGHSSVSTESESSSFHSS
Procedure: The assay was run with the DiscoverX protocol. β-Arrestin recruitment assays were performed by Eurofins-DiscoverX (Fremont, Calif.) using C2C12 CXCR4 β-Arrestin cell line (co-expressing ProLink tagged human CXCR4 and Enzyme Acceptor tagged β-Arrestin) and PathHunter detection kit. Peptides were initially prepared as 1 mM stock in H2O and tested in ten (10)-step concentration response curves using 3-fold dilution steps with 1 μM as highest concentration; a concentration range of 1 μM-0.05 nM was tested. C2C12 CXCR4 β-Arrestin cells were seed onto 384-well plates in standard medium. […] At the end of the 90 min incubation period, β-Arrestin recruitment in response to various treatments was quantified using a chemiluminescent complementation reporter assay to measure association of tagged human […] (ProLink tag) and tagged β-Arrestin (Enzyme Acceptor tag).

human CXCR4 [3] = biological target: T1, human CXCR4; test: CXCR4/CXCL12 binding, HTRF format, single concentration (Example 23); design: host or cells: HEK293 (Tag-lite CXCR4 cells, frozen aliquots, transient expression); conditions: 15 nM CXCR4R fluorescent probe, 3 hours, HEK293 Tag-lite CXCR4 cells
Procedure, shortened: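 Tag-lite CXCR4 cells were exposed to peptide at 400 nM final with 15 nM (EC80) fluorescent CXCR4 probe for 3 h at room temperature. HTRF was read, and the 665/620 nm ratio ×10,000 measured probe bound to terbium-labelled receptor.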

| Compound | Percent Inhibition of CXCR4/CXCL12 Induced p-MEK (100 nM Test Article) [1] [%] | Percent Inhibition of CXCR4/CXCL12 Induced p-MEK (1 μM Test Article) [1] [%] | IC50 (human CXCR4 [2]) [nM] | Percent Inhibition of CXCR4/CXCL12 Binding (400 nM peptide) (human CXCR4 [3]) [%] |
| --- | --- | --- | --- | --- |
| CC(C)C[C@H](NC(=O)[C@H](CO)NC(=O)[C@H](CO)NC(=O)[C@H](CCCNC(=N)N)NC(=O)[C@@H](NC(=O)[C@H](CO)NC(=O)[C@H](Cc1c[nH]cn1)NC(=O)[C@H](Cc1c[nH]cn1)NC(=O)[C@H](Cc1ccc(O)cc1)NC(=O)[C@H](CCCNC(=N)N)NC(=O)[C@H](CCCNC(=N)N)NC(=O)[C@@H](C)N)C(C)C)C(=O)N[C@@H](CCCNC(=N)N)C(=O)N1CCC[C@H]1C(=O)N[C@@H](Cc1ccc(O)cc1)C(=O)N[C@H](C(=O)N[C@@H](CCCCN)C(=O)O)[C@@H](C)O [compound 33] (H-[dA]RRYHHSVRSSLRPYTK-OH; N-terminus and C-terminus assumed) | 7 | 42 | 7 | 77 |
| CC(C)C[C@H](NC(=O)[C@H](CO)NC(=O)[C@H](CO)NC(=O)[C@H](CCCNC(=N)N)NC(=O)[C@@H](NC(=O)[C@H](CO)NC(=O)[C@H](Cc1c[nH]cn1)NC(=O)[C@H](Cc1c[nH]cn1)NC(=O)[C@H](Cc1ccc(O)cc1)NC(=O)[C@H](CCCNC(=N)N)NC(=O)[C@H](CCC(=O)O)NC(=O)[C@@H](C)N)C(C)C)C(=O)N[C@@H](CCCNC(=N)N)C(=O)N1CCC[C@H]1C(=O)N[C@@H](Cc1ccc(O)cc1)C(=O)N[C@H](C(=O)N[C@@H](CCCCN)C(=O)O)[C@@H](C)O [compound 34] (H-[dA]ERYHHSVRSSLRPYTK-OH; N-terminus and C-terminus assumed) | −1 | 2 | > 1000 | −17 |
| CC(C)C[C@H](NC(=O)[C@H](CO)NC(=O)[C@H](CO)NC(=O)[C@H](CCCNC(=N)N)NC(=O)[C@@H](NC(=O)[C@H](CO)NC(=O)[C@H](Cc1c[nH]cn1)NC(=O)[C@H](Cc1c[nH]cn1)NC(=O)[C@H](Cc1ccc(O)cc1)NC(=O)[C@H](CC(=O)O)NC(=O)[C@H](CCCNC(=N)N)NC(=O)[C@@H](N)CC(C)C)C(C)C)C(=O)N[C@@H](CCCNC(=N)N)C(=O)N1CCC[C@H]1C(=O)N[C@@H](Cc1ccc(O)cc1)C(=O)N[C@H](C(=O)N[C@@H](CCCCN)C(=O)O)[C@@H](C)O [compound 36] (H-LRDYHHSVRSSLRPYTK-OH; N-terminus and C-terminus assumed) | 22 | −5 | > 1000 | −11 |
| CC(C)C[C@H](NC(=O)[C@H](CO)NC(=O)[C@H](CO)NC(=O)[C@H](CCCNC(=N)N)NC(=O)[C@@H](C)NC(=O)[C@@H](NC(=O)[C@H](Cc1c[nH]cn1)NC(=O)[C@H](Cc1c[nH]cn1)NC(=O)[C@H](Cc1ccc(O)cc1)NC(=O)[C@H](CCCNC(=N)N)NC(=O)[C@H](CCC(=O)O)NC(=O)[C@@H](N)CC(C)C)[C@@H](C)O)C(=O)N[C@@H](CCCNC(=N)N)C(=O)N1CCC[C@H]1C(=O)N[C@@H](Cc1ccc(O)cc1)C(=O)N[C@H](C(=O)N[C@@H](CCCCN)C(=O)O)[C@@H](C)O [compound 40] (H-LERYHHT[dA]RSSLRPYTK-OH; N-terminus and C-terminus assumed) | 33 | 94 | 5 | 76 |
| CC(C)C[C@H](NC(=O)[C@H](CO)NC(=O)[C@H](CO)NC(=O)[C@H](CCCNC(=N)N)NC(=O)[C@@H](C)NC(=O)[C@H](CO)NC(=O)[C@H](Cc1c[nH]cn1)NC(=O)[C@H](CC(N)=O)NC(=O)[C@H](Cc1ccc(O)cc1)NC(=O)[C@H](CCCNC(=N)N)NC(=O)[C@H](CCC(=O)O)NC(=O)[C@@H](N)CC(C)C)C(=O)N[C@@H](CCCNC(=N)N)C(=O)N1CCC[C@H]1C(=O)N[C@@H](Cc1ccc(O)cc1)C(=O)N[C@H](C(=O)N[C@@H](CCCCN)C(=O)O)[C@@H](C)O [compound 43] (H-LERYNHS[dA]RSSLRPYTK-OH; N-terminus and C-terminus assumed) | 5 | 40 | 14 | 53 |
| CC(C)C[C@H](NC(=O)[C@H](CO)NC(=O)[C@H](CO)NC(=O)[C@H](CCCNC(=N)N)NC(=O)[C@@H](C)NC(=O)[C@H](CO)NC(=O)[C@H](Cc1c[nH]cn1)NC(=O)[C@H](Cc1c[nH]cn1)NC(=O)[C@H](Cc1ccccc1)NC(=O)[C@H](CCCNC(=N)N)NC(=O)[C@H](CCC(=O)O)NC(=O)[C@@H](N)CC(C)C)C(=O)N[C@@H](CCCNC(=N)N)C(=O)N1CCC[C@H]1C(=O)N[C@@H](Cc1ccc(O)cc1)C(=O)N[C@H](C(=O)N[C@@H](CCCCN)C(=O)O)[C@@H](C)O [compound 55] (H-LERFHHS[dA]RSSLRPYTK-OH; N-terminus and C-terminus assumed) | 16 | 72 | 4 | 56 |
| CC(C)C[C@H](NC(=O)[C@H](CO)NC(=O)[C@H](CO)NC(=O)[C@H](CCCNC(=N)N)NC(=O)[C@@H](NC(=O)[C@H](CO)NC(=O)[C@H](Cc1c[nH]cn1)NC(=O)[C@H](Cc1c[nH]cn1)NC(=O)[C@H](Cc1ccc(O)cc1)NC(=O)[C@H](CCCNC(=N)N)NC(=O)[C@H](CCCNC(=N)N)NC(=O)[C@@H](N)CC(C)C)C(C)C)C(=O)N[C@@H](CCCNC(=N)N)C(=O)N1CCC[C@H]1C(=O)N[C@@H](Cc1ccccc1)C(=O)N[C@H](C(=O)N[C@@H](CCCCN)C(=O)O)[C@@H](C)O [compound 59] (H-LRRYHHSVRSSLRPFTK-OH; N-terminus and C-terminus assumed) | 43 | 93 | 3 | −3 |
| CC(C)C[C@H](NC(=O)[C@H](CO)NC(=O)[C@H](CO)NC(=O)[C@H](CCCNC(=N)N)NC(=O)[C@@H](C)NC(=O)[C@H](CO)NC(=O)[C@H](Cc1c[nH]cn1)NC(=O)[C@H](Cc1c[nH]cn1)NC(=O)[C@H](Cc1ccc(O)cc1)NC(=O)[C@H](CCCNC(=N)N)NC(=O)[C@H](CCC(=O)O)NC(=O)[C@@H](N)CC(C)C)C(=O)N[C@@H](CCCNC(=N)N)C(=O)N1CCC[C@H]1C(=O)N[C@@H](Cc1ccccc1)C(=O)N[C@H](C(=O)N[C@@H](CCCCN)C(=O)O)[C@@H](C)O [compound 61] (H-LERYHHS[dA]RSSLRPFTK-OH; N-terminus and C-terminus assumed) | 15 | 46 | 8 | 54 |
| CC(C)C[C@H](NC(=O)[C@H](CO)NC(=O)[C@H](CO)NC(=O)[C@H](CCCNC(=N)N)NC(=O)[C@@H](NC(=O)[C@H](CO)NC(=O)[C@H](Cc1c[nH]cn1)NC(=O)[C@H](Cc1c[nH]cn1)NC(=O)[C@H](Cc1ccc(O)cc1)NC(=O)[C@H](CCCNC(=N)N)NC(=O)[C@H](CCCNC(=N)N)NC(=O)[C@@H](N)CC(C)C)C(C)C)C(=O)N[C@@H](CC(=O)O)C(=O)N1CCC[C@H]1C(=O)N[C@@H](Cc1ccc(O)cc1)C(=O)N[C@H](C(=O)N[C@@H](CCCCN)C(=O)O)[C@@H](C)O [compound 67] (H-LRRYHHSVRSSLDPYTK-OH; N-terminus and C-terminus assumed) | −8 | 42 | 14 | 3 |
